According to the supplement of paper PMC9780213:

Legend:
Details in all cases: treatment time: 24 h
U2OS-mOrange2-Peroxisome = assay: cell count relative to DMSO control (panel B, lysosome/peroxisome/lipid stain) (fraction of control); higher = more cells (less toxicity)
Experimental: (§1)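 U2OS-derived cells in 384-well plates were treated for 24 h with a 7-point 2-fold dilution series (top dose 20 µM for most compounds; final max DMSO 1%), then fixed, stained in four marker panels and imaged on a Cellomics ArrayScan. Cell count per treatment (three replicate plates merged) is given as a fraction of DMSO control. Panel A used parental U2OS, panel B U2OS-mOrange2-Peroxisome, panel C1 U2OS-LMNB1-TUBA1B-ACTB (DRAQ5 nuclei).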

U2OS-LMNB1-TUBA1B-ACTB = assay: cell count relative to DMSO control (panel C1, DRAQ5/ER stain) (fraction of control); higher = more cells (less toxicity)
Experimental: as §1

U2OS = assay: cell count relative to DMSO control (panel A, nuclei/RNA/PMG/mitochondria stain) (fraction of control); higher = more cells (less toxicity)
Experimental: as §1

## CC(=O)N[C@@H](CC(C)C)C(=O)N[C@@H](CC(C)C)C(=O)N[C@H](C=O)CCCN=C(N)N [leupeptin]
U2OS-mOrange2-Peroxisome; 0.3125 µM
  cell count: 0.839
U2OS-mOrange2-Peroxisome; 0.625 µM
  cell count: 0.806
U2OS-mOrange2-Peroxisome; 1.25 µM
  cell count: 0.749
U2OS-mOrange2-Peroxisome; 2.5 µM
  cell count: 0.771
U2OS-mOrange2-Peroxisome; 5 µM
  cell count: 0.895
U2OS-mOrange2-Peroxisome; 10 µM
  cell count: 0.952
U2OS-mOrange2-Peroxisome; 20 µM
  cell count: 1.27
U2OS-LMNB1-TUBA1B-ACTB; 0.3125 µM
  cell count: 1.07
U2OS-LMNB1-TUBA1B-ACTB; 0.625 µM
  cell count: 1.1
U2OS-LMNB1-TUBA1B-ACTB; 1.25 µM
  cell count: 1.06
U2OS-LMNB1-TUBA1B-ACTB; 2.5 µM
  cell count: 1.16
U2OS-LMNB1-TUBA1B-ACTB; 5 µM
  cell count: 1.05
U2OS-LMNB1-TUBA1B-ACTB; 10 µM
  cell count: 1.02
U2OS-LMNB1-TUBA1B-ACTB; 20 µM
  cell count: 1.01
U2OS; 0.3125 µM
  cell count: 1.07
U2OS; 0.625 µM
  cell count: 1.09
U2OS; 1.25 µM
  cell count: 0.933
U2OS; 2.5 µM
  cell count: 1.09
U2OS; 5 µM
  cell count: 1.04
U2OS; 10 µM
  cell count: 1.03
U2OS; 20 µM
  cell count: 1.01

## O=NN(CCCl)C(=O)NC1CCCCC1 [lomustine]
U2OS-mOrange2-Peroxisome; 0.3125 µM
  cell count: 0.854
U2OS-mOrange2-Peroxisome; 0.625 µM
  cell count: 1.08
U2OS-mOrange2-Peroxisome; 1.25 µM
  cell count: 0.93
U2OS-mOrange2-Peroxisome; 2.5 µM
  cell count: 0.952
U2OS-mOrange2-Peroxisome; 5 µM
  cell count: 1.22
U2OS-mOrange2-Peroxisome; 10 µM
  cell count: 1.12
U2OS-mOrange2-Peroxisome; 20 µM
  cell count: 0.879
U2OS-LMNB1-TUBA1B-ACTB; 0.3125 µM
  cell count: 0.906
U2OS-LMNB1-TUBA1B-ACTB; 0.625 µM
  cell count: 0.972
U2OS-LMNB1-TUBA1B-ACTB; 1.25 µM
  cell count: 0.927
U2OS-LMNB1-TUBA1B-ACTB; 2.5 µM
  cell count: 0.932
U2OS-LMNB1-TUBA1B-ACTB; 5 µM
  cell count: 1.02
U2OS-LMNB1-TUBA1B-ACTB; 10 µM
  cell count: 0.856
U2OS-LMNB1-TUBA1B-ACTB; 20 µM
  cell count: 0.73
U2OS; 0.3125 µM
  cell count: 0.856
U2OS; 0.625 µM
  cell count: 0.819
U2OS; 1.25 µM
  cell count: 0.952
U2OS; 2.5 µM
  cell count: 0.895
U2OS; 5 µM
  cell count: 1.02
U2OS; 10 µM
  cell count: 0.818
U2OS; 20 µM
  cell count: 0.7

## COc1cc(-n2c(=S)[nH]c3ccccc3c2=O)c(Cl)cc1Cl [mdivi-1]
U2OS-mOrange2-Peroxisome; 0.3125 µM
  cell count: 0.787
U2OS-mOrange2-Peroxisome; 0.625 µM
  cell count: 0.837
U2OS-mOrange2-Peroxisome; 1.25 µM
  cell count: 0.803
U2OS-mOrange2-Peroxisome; 2.5 µM
  cell count: 1.03
U2OS-mOrange2-Peroxisome; 5 µM
  cell count: 1.03
U2OS-mOrange2-Peroxisome; 10 µM
  cell count: 0.618
U2OS-mOrange2-Peroxisome; 20 µM
  cell count: 0.921
U2OS-LMNB1-TUBA1B-ACTB; 0.3125 µM
  cell count: 1.02
U2OS-LMNB1-TUBA1B-ACTB; 0.625 µM
  cell count: 1.01
U2OS-LMNB1-TUBA1B-ACTB; 1.25 µM
  cell count: 1.08
U2OS-LMNB1-TUBA1B-ACTB; 2.5 µM
  cell count: 1.03
U2OS-LMNB1-TUBA1B-ACTB; 5 µM
  cell count: 1.02
U2OS-LMNB1-TUBA1B-ACTB; 10 µM
  cell count: 0.74
U2OS-LMNB1-TUBA1B-ACTB; 20 µM
  cell count: 1.09
U2OS; 0.3125 µM
  cell count: 1.02
U2OS; 0.625 µM
  cell count: 0.927
U2OS; 1.25 µM
  cell count: 1.04
U2OS; 2.5 µM
  cell count: 1.01
U2OS; 5 µM
  cell count: 1
U2OS; 10 µM
  cell count: 0.643
U2OS; 20 µM
  cell count: 1.04

## CCN(CC)CCCC(C)Nc1c2ccc(Cl)cc2nc2ccc(OC)cc12 (stereo not drawn) [mepacrine]
U2OS-mOrange2-Peroxisome; 0.3125 µM
  cell count: 0.781
U2OS-mOrange2-Peroxisome; 0.625 µM
  cell count: 0.889
U2OS-mOrange2-Peroxisome; 1.25 µM
  cell count: 0.854
U2OS-mOrange2-Peroxisome; 2.5 µM
  cell count: 0.763
U2OS-mOrange2-Peroxisome; 5 µM
  cell count: 0.778
U2OS-mOrange2-Peroxisome; 10 µM
  cell count: 0.733
U2OS-mOrange2-Peroxisome; 20 µM
  cell count: 0.449
U2OS-LMNB1-TUBA1B-ACTB; 0.3125 µM
  cell count: 1.13
U2OS-LMNB1-TUBA1B-ACTB; 0.625 µM
  cell count: 1.01
U2OS-LMNB1-TUBA1B-ACTB; 1.25 µM
  cell count: 1.03
U2OS-LMNB1-TUBA1B-ACTB; 2.5 µM
  cell count: 1.07
U2OS-LMNB1-TUBA1B-ACTB; 5 µM
  cell count: 1.08
U2OS-LMNB1-TUBA1B-ACTB; 10 µM
  cell count: 1.05
U2OS-LMNB1-TUBA1B-ACTB; 20 µM
  cell count: 0.727
U2OS; 0.3125 µM
  cell count: 1.02
U2OS; 0.625 µM
  cell count: 0.981
U2OS; 1.25 µM
  cell count: 0.98
U2OS; 2.5 µM
  cell count: 0.921
U2OS; 5 µM
  cell count: 0.925
U2OS; 10 µM
  cell count: 0.85
U2OS; 20 µM
  cell count: 0.616

## CN(Cc1cnc2nc(N)nc(N)c2n1)c1ccc(C(=O)N[C@@H](CCC(=O)O)C(=O)O)cc1 [methotrexate]
U2OS-mOrange2-Peroxisome; 0.07812 µM
  cell count: 0.761
U2OS-mOrange2-Peroxisome; 0.15625 µM
  cell count: 0.757
U2OS-mOrange2-Peroxisome; 0.3125 µM
  cell count: 0.663
U2OS-mOrange2-Peroxisome; 0.625 µM
  cell count: 0.807
U2OS-mOrange2-Peroxisome; 1.25 µM
  cell count: 0.808
U2OS-mOrange2-Peroxisome; 2.5 µM
  cell count: 0.78
U2OS-mOrange2-Peroxisome; 5 µM
  cell count: 0.748
U2OS-LMNB1-TUBA1B-ACTB; 0.07812 µM
  cell count: 0.922
U2OS-LMNB1-TUBA1B-ACTB; 0.15625 µM
  cell count: 0.8
U2OS-LMNB1-TUBA1B-ACTB; 0.3125 µM
  cell count: 0.838
U2OS-LMNB1-TUBA1B-ACTB; 0.625 µM
  cell count: 0.851
U2OS-LMNB1-TUBA1B-ACTB; 1.25 µM
  cell count: 0.728
U2OS-LMNB1-TUBA1B-ACTB; 2.5 µM
  cell count: 0.663
U2OS-LMNB1-TUBA1B-ACTB; 5 µM
  cell count: 0.497
U2OS; 0.07812 µM
  cell count: 0.782
U2OS; 0.15625 µM
  cell count: 0.699
U2OS; 0.3125 µM
  cell count: 0.705
U2OS; 0.625 µM
  cell count: 0.696
U2OS; 1.25 µM
  cell count: 0.691
U2OS; 2.5 µM
  cell count: 0.689
U2OS; 5 µM
  cell count: 0.561

## CO[C@@]12[C@H](COC(N)=O)C3=C(C(=O)C(C)=C(N)C3=O)N1C[C@@H]1N[C@@H]12 [mitomycin-c]
U2OS-mOrange2-Peroxisome; 0.3125 µM
  cell count: 0.696
U2OS-mOrange2-Peroxisome; 0.625 µM
  cell count: 0.65
U2OS-mOrange2-Peroxisome; 1.25 µM
  cell count: 0.706
U2OS-mOrange2-Peroxisome; 2.5 µM
  cell count: 0.72
U2OS-mOrange2-Peroxisome; 5 µM
  cell count: 0.6
U2OS-mOrange2-Peroxisome; 10 µM
  cell count: 0.363
U2OS-mOrange2-Peroxisome; 20 µM
  cell count: 0.279
U2OS-LMNB1-TUBA1B-ACTB; 0.3125 µM
  cell count: 0.882
U2OS-LMNB1-TUBA1B-ACTB; 0.625 µM
  cell count: 0.789
U2OS-LMNB1-TUBA1B-ACTB; 1.25 µM
  cell count: 0.864
U2OS-LMNB1-TUBA1B-ACTB; 2.5 µM
  cell count: 0.812
U2OS-LMNB1-TUBA1B-ACTB; 5 µM
  cell count: 0.746
U2OS-LMNB1-TUBA1B-ACTB; 10 µM
  cell count: 0.672
U2OS-LMNB1-TUBA1B-ACTB; 20 µM
  cell count: 0.38
U2OS; 0.3125 µM
  cell count: 0.677
U2OS; 0.625 µM
  cell count: 0.708
U2OS; 1.25 µM
  cell count: 0.683
U2OS; 2.5 µM
  cell count: 0.639
U2OS; 5 µM
  cell count: 0.59
U2OS; 10 µM
  cell count: 0.531
U2OS; 20 µM
  cell count: 0.278

## O=C1c2c(O)ccc(O)c2C(=O)c2c(NCCNCCO)ccc(NCCNCCO)c21 [mitoxantrone]
U2OS-mOrange2-Peroxisome; 0.07812 µM
  cell count: 1.16
U2OS-mOrange2-Peroxisome; 0.15625 µM
  cell count: 0.953
U2OS-mOrange2-Peroxisome; 0.3125 µM
  cell count: 0.648
U2OS-mOrange2-Peroxisome; 0.625 µM
  cell count: 0.642
U2OS-mOrange2-Peroxisome; 1.25 µM
  cell count: 0.605
U2OS-mOrange2-Peroxisome; 2.5 µM
  cell count: 0.544
U2OS-mOrange2-Peroxisome; 5 µM
  cell count: 0.548
U2OS-LMNB1-TUBA1B-ACTB; 0.07812 µM
  cell count: 1.05
U2OS-LMNB1-TUBA1B-ACTB; 0.15625 µM
  cell count: 0.693
U2OS-LMNB1-TUBA1B-ACTB; 0.3125 µM
  cell count: 0.532
U2OS-LMNB1-TUBA1B-ACTB; 0.625 µM
  cell count: 0.465
U2OS-LMNB1-TUBA1B-ACTB; 1.25 µM
  cell count: 0.434
U2OS-LMNB1-TUBA1B-ACTB; 2.5 µM
  cell count: 0.403
U2OS-LMNB1-TUBA1B-ACTB; 5 µM
  cell count: 0.371
U2OS; 0.07812 µM
  cell count: 0.956
U2OS; 0.15625 µM
  cell count: 0.887
U2OS; 0.3125 µM
  cell count: 0.662
U2OS; 0.625 µM
  cell count: 0.503
U2OS; 1.25 µM
  cell count: 0.411
U2OS; 2.5 µM
  cell count: 0.455
U2OS; 5 µM
  cell count: 0.447

## CC[C@@]1([C@@H]2O[C@@H]([C@H]3O[C@@](O)(CO)[C@H](C)C[C@@H]3C)C[C@@H]2C)CC[C@H]([C@]2(C)CC[C@]3(C[C@H](O)[C@@H](C)[C@@H]([C@@H](C)[C@@H](OC)[C@H](C)C(=O)O)O3)O2)O1 [monensin]
U2OS-mOrange2-Peroxisome; 0.3125 µM
  cell count: 0.691
U2OS-mOrange2-Peroxisome; 0.625 µM
  cell count: 0.713
U2OS-mOrange2-Peroxisome; 1.25 µM
  cell count: 0.78
U2OS-mOrange2-Peroxisome; 2.5 µM
  cell count: 0.617
U2OS-mOrange2-Peroxisome; 5 µM
  cell count: 0.617
U2OS-mOrange2-Peroxisome; 10 µM
  cell count: 0.641
U2OS-mOrange2-Peroxisome; 20 µM
  cell count: 0.633
U2OS-LMNB1-TUBA1B-ACTB; 0.3125 µM
  cell count: 0.932
U2OS-LMNB1-TUBA1B-ACTB; 0.625 µM
  cell count: 0.699
U2OS-LMNB1-TUBA1B-ACTB; 1.25 µM
  cell count: 0.642
U2OS-LMNB1-TUBA1B-ACTB; 2.5 µM
  cell count: 0.412
U2OS-LMNB1-TUBA1B-ACTB; 5 µM
  cell count: 0.421
U2OS-LMNB1-TUBA1B-ACTB; 10 µM
  cell count: 0.406
U2OS-LMNB1-TUBA1B-ACTB; 20 µM
  cell count: 0.418
U2OS; 0.3125 µM
  cell count: 0.746
U2OS; 0.625 µM
  cell count: 0.606
U2OS; 1.25 µM
  cell count: 0.504
U2OS; 2.5 µM
  cell count: 0.422
U2OS; 5 µM
  cell count: 0.375
U2OS; 10 µM
  cell count: 0.339
U2OS; 20 µM
  cell count: 0.332
